Assay results as given in patent US8057790B2, “Treatment of malodour” (Blis Technologies Limited, priority 2003, dated 2011).
“And” between values parts separate entries of the source, which are not always exact repeats. Equal entries are not always repeated.

Key:
[1] = tested on: halitosis subjects; assay: Organoleptic assessment of subjects' saliva; format: in vivo, human; conditions: three recalled subjects; 3-day CHX regimen only; seventh day; scale of 0-5
Source text: Sixty-five subjects were screened for volatile sulphur compound (VSC) breath readings by halimeter (Interscan Corp., Chatsworth, Calif.). VSC readings in persons with normal breath are typically in the range of 80-150 ppb. At levels of 200-300 ppb oral malodor is noticeable by an observer standing close to the patient. At 350-400 ppb, the odour is noticeable by an observer standing several feet away from the patient. Those subjects with breath scores of greater than 200 ppb on two separate visits were recruited for the study (n=13). Each signed an Informed Consent under a protocol approved by the Otago Ethics Committee. Subject's upon their second positive visit undertook a mechanical and chemical treatment of their mouths at the laboratory. […]
Fresh saliva samples and tongue swabs were tested for N-benzoyl-DL-arginine-2-naphthylamide (BANA) hydrolysis (BANAMet ILC, Ann Arbor, Mich.), since positive scores by the BANA test have previously been associated with the presence of malodour-forming enzyme activities of certain oral bacterial species (1, 3). […] The samples were graded according to the same criteria used to assess breath air of halitosis sufferers (7), using a scale of 0-5, with 0 equating to no odour detected and 5 the most severe.

[2] = tested on: halitosis subjects; assay: Volatile sulphur compound (VSC) breath readings by halimeter in halitosis subjects; format: in vivo, human; conditions: three recalled subjects
Source text: Sixty-five subjects were screened for volatile sulphur compound (VSC) breath readings by halimeter (Interscan Corp., Chatsworth, Calif.). VSC readings in persons with normal breath are typically in the range of 80-150 ppb. At levels of 200-300 ppb oral malodor is noticeable by an observer standing close to the patient. At 350-400 ppb, the odour is noticeable by an observer standing several feet away from the patient. Those subjects with breath scores of greater than 200 ppb on two separate visits were recruited for the study (n=13). Each signed an Informed Consent under a protocol approved by the Otago Ethics Committee. Subject's upon their second positive visit undertook a mechanical and chemical treatment of their mouths at the laboratory. This consisted of teeth and tongue brushing (2 minutes with Colgate Total™ [0.3% w/v triclosan], Colgate-Palmolive, N.Y., USA), tongue scraping for 30 seconds, brushing teeth and tongue with a CHX gel (Colgate, Australia) (Perioguard 2.0% CHX mouth gel, 2 minutes) and followed by a 30 second CHX rinse (0.2% CHX, 10% ethanol alcohol). This was followed at intervals by the sucking of a lozenge (BLIS Technologies Limited, Wellington, New Zealand) (commencing 2 hours after treatment and typically 2 hours apart, 4 times daily), each containing>1×10^9 colony forming units of streptomycin-resistant S. salivarius K12. […]

[H]/N=C(\N/C(=N/[H])NCCCCCCNC(=N)NC(=N)Nc1ccc(Cl)cc1)Nc1ccc(Cl)cc1 [CHX, chlorhexidine]
Post CHX treatment Saliva organoleptic [1]: 2 and 3
change in VSC, organoleptic or BANA readings after treatment with CHX only [2]: no decrease
